Experimental data taken from patent US20240366542A1, “S[…] SEROTONIN RECEPTORS” (ATAI Therapeutics, Inc., priority 2022, published 2024).

Key:
Format in all cases: cell-based
5-HT2A receptor [1] = target: T1, 5-HT2A receptor (Homo sapiens, UniProt P28223); test: Calcium mobilization (Ca++ flux) assay, agonist mode, 5-HT2A; settings: for 5-HT2A receptor, Ca++ Flux % activation @30 μM: 30 μM compound, relative to MAX control 0.1 μM serotonin; for EC50: agonist mode, FLIPR calcium mobilization
Procedure: (§1) The Calcium No-Wash^PLUS assay monitors the activation of a GPCR via Gq secondary messenger signaling in a live cell, non-imaging assay format. Calcium mobilization in PathHunter® cell lines or other cell lines stably expressing Gq-coupled GPCRs is monitored using a calcium-sensitive dye that is loaded into cells. GPCR activation by a compound result in the release of calcium from intracellular stores and an increase in dye fluorescence that is measured in real-time. Cell lines expressing the GPCR of interest were expanded from freezer stocks according to standard procedures. Cells were seeded in a total volume of 20 μL into black-walled, clear-bottom, Poly-D-lysine coated 384-well microplates and incubated at 37° C. for the appropriate time prior to testing. Assays were performed in 1×Dye Loading Buffer consisting of 1× Dye, 1× Additive A and 2.5 mM Probenecid in HBSS/20 mM Hepes. Probenicid was prepared fresh. Cells were loaded with dye prior to testing. Media was aspirated from cells and replaced with 20 μL Dye Loading Buffer. Cells were incubated for 30-60 minutes at 37° C. For agonist determination, cells were incubated with sample to induce response. After dye loading, cells were removed from the incubator and 10 μL HBSS/20 mM Hepes was added. 3× vehicle was included in the buffer when performing agonist dose curves to define the EC80 for subsequent antagonist assays. Cells were incubated for 30 minutes at room temperature in the dark to equilibrate plate temperature. Intermediate dilution of sample stocks was performed to generate 4× sample in assay buffer. Compound agonist activity was measured on a FLIPR Tetra (MDS). Calcium mobilization was monitored for 2 minutes and 10 μL 4× sample in HBSS/20 mM Hepes was added to the cells 5 seconds into the assay. Compound activity data was analyzed using CBIS data analysis suite (ChemInnovation, CA). For agonist mode assays, percentage activity is calculated using the following formula:
% Activity=100%×(mean RFU of test sample−mean RFU of vehicle control)/(mean MAX RFU control ligand−mean RFU of vehicle control).
In these studies, the MAX RFU was generated by using 0.1 μM serotonin for the calcium mobilization assay.

5-HT2A receptor [2] = target: T1, 5-HT2A receptor; test: PathHunter β-Arrestin assay, agonist mode, 5-HT2A
Procedure: The PathHunter® β-Arrestin assay monitors the activation of a GPCR in a homogenous, non-imaging assay format using a technology developed by DiscoverX called Enzyme Fragment Complementation (EFC) with β-galactosidase (β-Gal) as the functional reporter. […] EA is fused to β-Arrestin and PK is fused to the GPCR of interest. When the GPCR is activated and β-Arrestin is recruited to the receptor, ED and EA complementation occurs, restoring β-Gal activity which is measured using chemiluminescent PathHunter® Detection Reagents. PathHunter cell lines (DiscoveRx Eurofins) were expanded from freezer stocks according to standard procedures. Cells were seeded in a total volume of 20 μL into white walled, 384-well microplates and incubated at 37° C. for the appropriate time prior to testing. For agonist determination, cells were incubated with sample to induce response. Intermediate dilution of sample stocks was performed to generate 5× sample in assay buffer. 5 μL of 5× sample was added to cells and incubated at 37° C. or room temperature for 90 to 180 minutes. Vehicle concentration was 1%. β-Arrestin assay signal was generated through a single addition of 12.5 or 15 μL (50% v/v) of PathHunter Detection reagent cocktail, followed by a one-hour incubation at room temperature. Microplates were read following signal generation with a PerkinElmer Envision™ instrument for chemiluminescent signal detection. Compound activity was analyzed using CBIS data analysis suite (ChemInnovation, CA). For agonist mode assays, percentage activity was calculated using the following formula:
% Activity=100%×(mean RLU of test sample−mean RLU of vehicle control)/(mean MAX control ligand−mean RLU of vehicle control).
In these studies, the MAX control ligand response was generated using 1-10 μM serotonin.

5-HT2B receptor = 5-HT2B receptor (Homo sapiens, UniProt P41595); test: Calcium mobilization (Ca++ flux) assay, agonist mode, 5-HT2B
Chain of 5-HT2B receptor (P41595 whole entry): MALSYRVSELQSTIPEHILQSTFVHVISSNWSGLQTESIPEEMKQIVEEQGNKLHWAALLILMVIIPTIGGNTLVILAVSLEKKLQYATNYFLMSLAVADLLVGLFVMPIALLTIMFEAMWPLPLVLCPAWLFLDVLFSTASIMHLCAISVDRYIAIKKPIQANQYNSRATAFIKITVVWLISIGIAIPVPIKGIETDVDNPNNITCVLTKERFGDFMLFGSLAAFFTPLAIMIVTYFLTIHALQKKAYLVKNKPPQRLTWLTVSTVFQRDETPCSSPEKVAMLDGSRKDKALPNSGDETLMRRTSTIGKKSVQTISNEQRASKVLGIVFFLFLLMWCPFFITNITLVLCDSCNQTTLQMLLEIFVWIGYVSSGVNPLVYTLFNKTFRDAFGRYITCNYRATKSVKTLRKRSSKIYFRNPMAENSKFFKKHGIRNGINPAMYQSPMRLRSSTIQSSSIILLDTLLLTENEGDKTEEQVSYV
Procedure: as §1, with “Media was aspirated from cells and replaced with 20 μL Dye Loading Buffer. Cells were incubated for 30-60 minutes at 37° C. For agonist determination, cells were incubated with sample to induce response. After dye loading, cells were removed from the incubator and 10 μL HBSS/20 mM Hepes was added. 3× vehicle was included in the buffer when performing agonist dose curves to define the EC80 for subsequent antagonist assays. Cells were incubated for 30 minutes at room temperature in the dark to equilibrate plate temperature. Intermediate dilution of sample stocks was performed to generate 4× sample in assay buffer.” left out, “formula: […]” for “formula:”

5-HT2C receptor = target: T2, 5-HT2C receptor (Homo sapiens, UniProt P28335); test: Calcium mobilization (Ca++ flux) assay, agonist mode, 5-HT2C
T2 sequence (P28335 33-458): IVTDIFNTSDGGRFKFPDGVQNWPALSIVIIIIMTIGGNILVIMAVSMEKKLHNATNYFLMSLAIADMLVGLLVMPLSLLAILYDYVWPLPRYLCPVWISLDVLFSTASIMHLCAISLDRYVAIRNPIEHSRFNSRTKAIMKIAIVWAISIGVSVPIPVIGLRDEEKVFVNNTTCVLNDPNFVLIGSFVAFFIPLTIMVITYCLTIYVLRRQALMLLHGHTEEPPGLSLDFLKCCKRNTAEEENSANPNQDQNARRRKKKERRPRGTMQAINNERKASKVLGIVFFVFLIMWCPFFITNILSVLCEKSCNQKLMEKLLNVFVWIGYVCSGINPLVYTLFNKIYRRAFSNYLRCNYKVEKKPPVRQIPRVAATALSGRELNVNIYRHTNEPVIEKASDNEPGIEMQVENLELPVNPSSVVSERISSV
Procedure: as §1, with “Media was aspirated from cells and replaced with 20 μL Dye Loading Buffer. Cells were incubated for 30-60 minutes at 37° C. For agonist determination, cells were incubated with sample to induce response. After dye loading, cells were removed from the incubator and 10 μL HBSS/20 mM Hepes was added. 3× vehicle was included in the buffer when performing agonist dose curves to define the EC80 for subsequent antagonist assays. Cells were incubated for 30 minutes at room temperature in the dark to equilibrate plate temperature. Intermediate dilution of sample stocks was performed to generate 4× sample in assay buffer.” left out, “formula: […]” for “formula:”

T1 sequence (P28223 whole entry): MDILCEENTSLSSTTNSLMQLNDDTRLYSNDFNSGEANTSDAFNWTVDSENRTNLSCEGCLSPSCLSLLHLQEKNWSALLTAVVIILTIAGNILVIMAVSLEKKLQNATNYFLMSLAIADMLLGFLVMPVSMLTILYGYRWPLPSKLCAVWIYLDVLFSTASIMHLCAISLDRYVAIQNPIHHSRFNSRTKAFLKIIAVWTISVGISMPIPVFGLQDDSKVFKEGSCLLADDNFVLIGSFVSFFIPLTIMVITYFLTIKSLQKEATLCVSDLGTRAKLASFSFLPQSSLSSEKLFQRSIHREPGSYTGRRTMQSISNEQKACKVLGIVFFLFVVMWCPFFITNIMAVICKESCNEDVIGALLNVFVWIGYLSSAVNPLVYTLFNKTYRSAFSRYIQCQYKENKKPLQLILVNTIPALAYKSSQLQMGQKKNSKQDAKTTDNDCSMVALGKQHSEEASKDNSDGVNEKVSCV

SMILES | 5-HT2A receptor, Ca++ Flux % activation @30 μM (5-HT2A receptor [1]) | EC50 (5-HT2A receptor [2]) [nM] | EC50 (5-HT2A receptor [1]) [nM] | EC50 (5-HT2B receptor) [nM] | EC50 (5-HT2C receptor) [nM]
COc1cc(S(C)(=N)=O)c(OC)cc1CCNCc1cc(C)cc(Cl)c1 (single isomer, unassigned) [Compound 2, (4-(2-((3-chloro-5-methylbenzyl)amino)ethyl)-2,5-dimethoxyphenyl)(imino)(methyl)-λ^6-sulfanone] | NA/57% |  |  |  | 
COc1cc(S(C)(=N)=O)c(OC)cc1CCNCc1cc(C)cc(Cl)c1 (single isomer, unassigned) [Compound 3, (4-(2-((3-chloro-5-methylbenzyl)amino)ethyl)-2,5-dimethoxyphenyl)(imino)(methyl)-λ^6-sulfanone] | 78% | 13.6 | 2.4 | > 1000 | 1490
COc1cc(S(C)(=N)=O)c(OC)cc1CCNCc1cc(C)cc(Cl)c1 (stereo not shown) [Compound 1, (4-(2-((3-chloro-5-methylbenzyl)amino)ethyl)-2,5-dimethoxyphenyl)(imino)(methyl)-λ^6-sulfanone] | 102% | 25 | 4.1 | > 1000 | 
COc1cc(S(C)(=N)=O)c(OC)cc1CCNCc1cc(C)cc(Cl)n1 (stereo not shown) [Compound 4, (4-(2-(((6-chloro-4-methylpyridin-2-yl)methyl)amino)ethyl)-2,5-dimethoxyphenyl)(imino)(methyl)-λ^6-sulfanone] | NA/67% |  |  |  | 
COc1cc(S(C)(=N)=O)c(OC)cc1CCNCc1ccccc1OC (stereo not shown) [Compound 5, (2,5-dimethoxy-4-(2-((2-methoxybenzyl)amino)ethyl)phenyl)(imino) (methyl)-λ^6-sulfanone] | 111% | 3.2 | 1.7 |  | 3.6
COc1cc(S(C)(=N)=O)c(OC)cc1CCNCc1ccccc1O (stereo not shown) [Compound 6, (4-(2-((2-hydroxybenzyl)amino)ethyl)-2,5-dimethoxyphenyl)(imino)(methyl)-λ^6-sulfanone] | NA/ 82% |  |  |  | 
